Laboratory results from patent US10172951B2, “Dendrimer based nanodevices for therapeutic and imaging purposes” (priority 2009, dated 2019).
“Also recorded” adds a separate entry of the source.

What was measured:
[1] = Stability (oxidation) of free NAC and free GSH in PBS; format: physicochemical; conditions: over 17 hours
Procedure: (§1) The conjugates were also analyzed in the absence of GSH to verify the stability of the disulfide linkage at physiological pH. […] The extent of the release of drug from both dendrimer-NAC conjugates was also analyzed at plasma and intracellular GSH concentrations. The conjugates and the GSH in required amounts were added to PBS solution, and the solution was analyzed at various time intervals by HPLC for up to 17 hours. UV absorbance peak areas were used to determine the concentrations of each of the species in the solution, based on appropriate calibration curves.

[2] = cited from earlier work
[3] = cited from earlier work; remark: listed apart in the source
BV-2 cells [4] = test: TNF-α ELISA in LPS-activated BV-2 cells (Example 18); format: cell-based, mouse; conditions: 72 hours LPS following 3 hours treatment
Procedure: (§2) BV-2 cells (passage 16) were seeded in 24 well plates at 10^5/mL/well and incubated for 24 hours. The medium was removed, and the cells were exposed to 100 ng/mL of LPS and varying concentrations of PAMAM-(COOH)46-(NAC)18 conjugate in 500 μL of serum free medium for 3 hours. The medium was removed again, and 500 μL of fresh serum free medium containing 100 ng/mL of LPS was added and incubated for 24 hours and 72 hours. Control treatment with varying concentrations of free NAC, positive control with 100 ng/mL of LPS induction, but negative control without any LPS induction and treatment were also studied. The culture medium was collected at specific time intervals of 24 hours and 72 hours, and spun at 1500 rpm for 5 min. The supernatant was stored at −80° C. for further assays.
The procedure for cell culture and drug treatment was the same as described in previous section. TNF-α secretion was measured using an ELISA kit according to the manufacturer's instructions. In brief, 50 μL of supernatant from each sample was added in 96-well ELISA plates. Biotinylated antibody reagent was applied to each well and the plate was incubated at room temperature for 2 hours. After washing the plate with PBS-Tween 20, diluted streptavidin-HRP was added, and the plate was incubated at room temperature for 30 min. After washing the plate, the premixed TMB substrate solution was added. The plate was developed in the dark for 30 min, and read at 450 nm using a microplate reader. The concentration of TNF-α was calculated using murine rTNF-α as standard.

BV-2 cells [5] = test: ROS assay, percent reduction in H2O2 in LPS-treated BV-2 cells (Example 19); format: cell-based, mouse; conditions: co-treatment with LPS
Procedure: Cells were treated with lipopolysaccharide (LPS) to induce the production of ROS. The cells were treated with LPS (100 ng/ml) and either NAC, PAMAM-S—S-NAC, or free PAMAM-NH2 dendrimers at appropriate concentrations to study the efficacy of the conjugates for reducing the ROS concentrations. In order to quantify the efficacy of conjugates, H2O2 released from BV-2 cells (ROS) was measured using the Amplex Red Hydrogen Peroxide/Peroxidase Assay Kit using previously established procedures.

BV-2 cells [6] = test: NO release assay (nitrite, Griess), PEG-NAC conjugates; format: cell-based, mouse; conditions: highest concentration 5 mM
Procedure: (A) BV-2 cells (passage 22) were co-treated with 100 ng/mL of LPS and the indicated concentration of NAC, PEG-NAC conjugate 1 and its corresponding PEG for 72 hours. (B) BV-2 cells were co-treated with 100 ng/mL of LPS and the indicated concentration of NAC, PEG-NAC conjugate 2 its corresponding PEG for 72 hours. Nitrite in culture medium was measured using Griess reagent system.
Production of NO was assayed by measuring the levels of nitrite, the stable NO metabolite, in supernatant. Accumulation of nitrite in supernatant was determined by colorimetric assay with Griess reagent system, which uses sulfanilamide and N-(1-Naphthyl)-ethylene diamine. 100 μL of the supernatant was incubated with 50 μL of Griess reagent 1 (sulfanilamide) and 50 μL of Griess reagent 2 N-(1-Naphthyl)-ethylenediamine for 10 min at room temperature. The absorbance at 540 nm was then measured, and nitrite concentration was determined using a curve calibrated with nitrite standards.

microglial cells = test: Cytotoxicity assay in microglial cells (Example 18); format: cell-based, mouse; conditions: concentrations tested in vitro
BV-2 cells [7] = test: ROS assay in LPS-activated BV-2 cells, 3 hours pre-treatment (Example 18); format: cell-based, mouse; conditions: for H2O2 reduction (%): 72 hours LPS following 3 hours treatment; for effect on ROS production: 24 hours LPS following 3 hours pre-treatment, 0.5-8 mM
Procedure: as §2
(§3) H2O2 released from BV-2 cells was measured using 10-acetyl-3,7-dihydroxyphenoxazine (Amplex Red), following the manufacturer's instructions (Alexandre et al., 2006; Min et al., 2003). The procedure for cell culture and drug treatment was the same as described in previous section. The supernatant was mixed with 0.05 U/mL of horseradish peroxidase and 1 μM of Amplex Red in 96-well plates. After 30 min incubation, the fluorescence intensity was measured using spectrofluorometry. Excitation and emission wavelengths were 530 nm and 590 nm respectively.

[8] = tested on: Mouse microglial cell line (BV-2); test: In vitro cytotoxicity, MTT assay (Example 19); conditions: 0.5, 2 and 8 mM
Excerpt: In vitro cytotoxicity of the conjugate, dendrimer and NAC, at conditions similar to that used in the efficacy assays, was investigated by MTT assay. Mouse microglial cell line (BV-2) was obtained from Children's Hospital of Michigan Cell Culture Facility. These cells were used because the eventual in vivo applications seek to target microglial cells that become activated as a result of neuroinflammation.
The lipopolysaccharide (LPS) was used to activate the cells for the ROS assay. For the cytotoxicity study, the LPS treatment was continuous for 24 hours. For both groups, the LPS concentration used was 100 ng/ml. Three concentrations of NAC were studied: 0.5 mM, 2 mM and 8 mM. For the conjugate assays, the concentrations used corresponded to equivalent NAC doses of the free drug treatment groups. Similarly, the dendrimer assays were run by using dendrimer concentrations that were equivalent to conjugate treatments. Control groups included cells receiving only LPS and no other treatment and cells with no LPS or other treatment. The proportion of viable cells in the treated group was compared to that of negative control. The cell viability is expressed as mean±SD of three samples per group, and assessed by t-test.

BV-2 cells [9] = test: ROS assay (H2O2, Amplex Red), PEG-NAC conjugates; format: cell-based, mouse; conditions: highest concentration 5 mM
Procedure: (A) BV-2 cells (passage 22) were co-treated with 100 ng/mL of LPS and the indicated concentration of NAC, PEG-NAC conjugate 1 and its corresponding PEG for 72 hours. (B) BV-2 cells were co-treated with 100 ng/mL of LPS and the indicated concentration of NAC, PEG-NAC conjugate 2 and its corresponding PEG for 72 hours. The amount of ROS released into the media was measured using Amplex Red.
as §3, with “instructions. Briefly, the” for “instructions (Alexandre et al., 2006; Min et al., 2003). The”, “nm.” for “nm respectively.”

BV-2 cells [10] = test: NO release (nitrite) assay in LPS-activated BV-2 cells (Example 18); format: cell-based, mouse; conditions: for Nitrite reduction (%): 72 hours LPS following 3 hours treatment; for reduction of nitrite release: 24 hours LPS following 3 hours pre-treatment
Procedure: as §2
Production of NO was assayed by measuring the levels of nitrite, the stable NO metabolite, in the culture medium. Accumulation of nitrite in the medium was determined by colorimetric assay with Griess reagent system, which uses sulfanilamide and N-(1-Naphthyl)-ethylene diamine. From the treated cells in the medium, 100 μL of the supernatant was incubated with 50 μL of Griess reagent 1 (sulfanilamide) and 50 μL of Griess reagent 2 N-(1-Naphthyl)-ethylenediamine for 10 min at room temperature. The absorbance at 540 nm was then measured, and nitrite concentration was determined using a calibration curve prepared using nitrite standards.

Solubility in PBS/H2O = format: physicochemical
[11] = GSH triggered NAC release from PAMAM dendrimer-NAC conjugates (RP-HPLC); format: physicochemical; conditions: absence of GSH, or GSH levels in the blood (20 μM)
[12] = as above; format: physicochemical
Procedure: Appropriate amounts of PAMAM-S—S-NAC conjugate were dissolved in release media (Citrate or PBS buffers) to form a solution of 1 mg/ml PAMAM-S—S-NAC. One of the thiol containing molecules (GSH, Cys or BSA) was added to the conjugates to form 10 mM, 2 mM, 0.5 mM 0.1 mM or 2 μM overall thiol group concentrations and to initiate the release of NAC. All samples were run as triplicates for statistical analysis.
As control samples, conjugates were analyzed in both release media in the absence of reducing agents. The solutions were kept at 37° C. and stirred continuously. At predetermined time intervals, […] of samples were withdrawn and immediately analyzed with RP-HPLC and the concentrations of analytes were determined by using appropriate calibrations prepared under same conditions.
Dendrimer NAC conjugates were analyzed for their drug release mechanism and kinetics in the presence of GSH, Cys and BSA. Buffer solutions with pH 5 (Citrate Buffer) and pH 7.4 (Phosphate Buffered Saline) containing various concentrations of these thiol containing moieties were used in release studies.
All GSH concentrations studied were between average plasma (2 μM) and intracellular (2-10 mM) GSH levels. Various GSH concentrations were used in order to determine the GSH dependent release kinetics of the conjugate. The conjugate solutions contained 730 μM NAC in the conjugated form (1 mg/ml PAMAM-S—S-NAC) at the beginning of the release studies. GSH concentration in the release media was compared to the conjugated NAC concentrations in the release solutions for analysis of the release kinetics and mechanism.
The release of NAC from the conjugates was investigated in the presence of GSH at intracellular and extracellular concentrations. It was assumed that the release of NAC would occur by the disulfide exchange reaction. GSH and its oxidized form (GSSG) are responsible for forming the intracellular redox buffer. Intracellularly, GSH takes the role of attacking thiolate moiety and gets oxidized in the process while cleaving the existing disulfide bonds.
as §1

[13] = 10 mM GSH, PBS pH 7.4, within 1 hour

Compound: N[C@@H](CCC(=O)N[C@@H](CS)C(=O)NCC(=O)O)C(=O)O [GSH, glutathione]
- converted to oxidized form [1]: 25%
- pKa of thiol group [2]: ~8.8

Compound: CC(=O)N[C@@H](CS)C(=O)O [NAC, N-acetyl-L-cysteine, reference compound]
- biological half-life ([3]; in the blood stream): 1.5 hours
- bioavailability ([3]; reduced by binding to plasma proteins): less than 8%
- TNF-α reduction (%) (BV-2 cells [4]; 0.5 mM): 34.98 ± 2.43%
- TNF-α reduction (%) (BV-2 cells [4]; 2 mM): 35.13 ± 4.44%
- TNF-α reduction (%) (BV-2 cells [4]; 8 mM): 44.57 ± 4.35%
- reduction in H2O2 levels (BV-2 cells [5]; 0.5 mM NAC (equivalent), 24 hours): 6%
- reduction in H2O2 levels (BV-2 cells [5]; 0.5 mM NAC (equivalent), 72 hours): 7%
- reduction in H2O2 levels (BV-2 cells [5]; 8 mM, 24 hours): 57%
- reduction in H2O2 levels (BV-2 cells [5]; 8 mM, 72 hours): 125%
- converted to oxidized form [1]: 25%
- reduction of nitrite levels (BV-2 cells [6]): 30-40%
- cytotoxicity (microglial cells): relatively nontoxic
- H2O2 reduction (%) (BV-2 cells [7]; 0.5 mM): 5.54 ± 6.38%
- H2O2 reduction (%) (BV-2 cells [7]; 2 mM): 22.28 ± 8.33%
- H2O2 reduction (%) (BV-2 cells [7]; 8 mM): 41.31 ± 2.33%
- effect on ROS production (BV-2 cells [7]): did not affect ROS production
- cytotoxicity [8]: no cytotoxicity
- reduction of H2O2 levels (BV-2 cells [9]): 30-40%
- Nitrite reduction (%) (BV-2 cells [10]; 0.5 mM): 10.52 ± 6.43%
- Nitrite reduction (%) (BV-2 cells [10]; 2 mM): 34.66 ± 3.22%
- reduction of nitrite release (BV-2 cells [10]; 8 mM): ~70%
- Nitrite reduction (%) (BV-2 cells [10]; 8 mM): 72.70 ± 5.56%

Compound: PAMAM-CO-GS—S-NAC [PAMAM-(COOH)46-(NAC)18]
- TNF-α reduction (%) (BV-2 cells [4]; 0.5 mM): ~67%
- TNF-α reduction (%) (BV-2 cells [4]; 0.5 mM, listed as D-NAC): 67.46 ± 3.91%
- TNF-α reduction (%) (BV-2 cells [4]; 2 mM): 74.43 ± 3.54%
- TNF-α reduction (%) (BV-2 cells [4]; 8 mM): 77.37 ± 3.31%
- cytotoxicity (microglial cells): relatively nontoxic; also recorded: non-toxic
- Solubility in PBS/H2O (Solubility in PBS/H2O): Highly
- H2O2 reduction (%) (BV-2 cells [7]; 0.5 mM): 25%
- H2O2 reduction (%) (BV-2 cells [7]; 0.5 mM, listed as D-NAC): 30.81 ± 8.08%
- H2O2 reduction (%) (BV-2 cells [7]; 2 mM): 51.13 ± 4.93%
- H2O2 reduction (%) (BV-2 cells [7]; 8 mM): 68%
- H2O2 reduction (%) (BV-2 cells [7]; 8 mM, listed as D-NAC): 68.75 ± 4.14%
- effect on ROS production (BV-2 cells [7]): significant inhibition of ROS production at 2 mM and 8 mM
- drug release [11]: no drug release
- reduction of nitrite release (BV-2 cells [10]; 0.5 mM NAC equivalent): ~61%
- Nitrite reduction (%) (BV-2 cells [10]; 0.5 mM): ~60%
- Nitrite reduction (%) (BV-2 cells [10]; 0.5 mM, listed as D-NAC): 60.82 ± 6.05%
- Nitrite reduction (%) (BV-2 cells [10]; 2 mM): 64.85 ± 5.12%
- Nitrite reduction (%) (BV-2 cells [10]; 8 mM): 75.75 ± 1.85%
- free drug dosage with comparable activity relative to conjugate dose (8 mM vs 0.5 mM) (BV-2 cells [10]; lowest conjugate dose 0.5 mM NAC): 16 ×
- NAC payload in GS-S-NAC (NAC-GSH) form [12, 13]: 6%
- NAC payload released in free form [12, 13]: 39%
- total NAC release [12, 13]: 45%
- NAC payload in GS-S-NAC form ([12]; 10 mM GSH, at 17 hours): 6%
- free NAC content ([12]; 10 mM GSH, at 17 hours): 46%
- NAC release ([12]; PBS buffer without GSH, 17 hours): did not release any of the NAC they carried
- NAC payload found as GS-S-NAC or NAC-NAC ([12]; plasma GSH concentration (2 μM)): 1%
- release of free NAC ([12]; plasma GSH concentration (2 μM), 17 hours): did not release any detectable levels of free NAC
